# Source: patent US20230137943A1, “PHOTOPROXIMITY PROFILING OF PROTEIN-PROTEIN INTERACTIONS IN CELLS” (The University of Chicago, priority 2019, published 2023)
# Target: T1, FLAG-tagged SNAP-Tag protein (SNAP-FLAG) (Homo sapiens, UniProt P16455, A127T/A154D/C150Q/C62A/E30R/G131K/G132T/G153L/K125A/K32I/L33F/M134L/N157G/Q115S/Q116H/R128A/R135S/S151G/S152D/S159E)
# T1 construct: expressed in transfected cells
# T1 sequence (P16455 1-182 E30R/K32I/L33F/C62A/Q115S/Q116H/K125A/A127T/R128A/G131K/G132T/M134L/R135S/C150Q/S151G/S152D/G153L/A154D/N157G/S159E limits assumed): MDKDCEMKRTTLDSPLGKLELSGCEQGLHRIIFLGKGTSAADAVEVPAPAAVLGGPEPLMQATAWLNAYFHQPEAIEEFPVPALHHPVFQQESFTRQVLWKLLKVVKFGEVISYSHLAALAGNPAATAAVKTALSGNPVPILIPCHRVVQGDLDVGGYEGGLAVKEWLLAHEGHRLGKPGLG
# Experiment: PP1 dose response: covalent labeling of SNAP-FLAG in live cells (Western blot)
# Type: cell-based
# Conditions: HEK293T cells stably expressing SNAP-FLAG, increasing doses for two hours, not irradiated
# Experimental: PP1 close response and viability assay: Dose response—Each well of a 6-well plate was seeded with 300,000 HEK293T cells stably expressing either SNAP-FLAG or KEAP-SNAP. After reaching ˜90% confluency the growth media was removed, cells washed with DPBS, and treated with varying concentrations (0, 0.5, 1, 5, 15, 45 μM) of photoproximity probe PP1 in 500 μL serum-free DMEM for 2 hours at 37° C. Post treatment, media was aspirated and non-reacted probe washed out with 3 mL full DMEM over 40 minutes, changing the media twice. Cells were harvested, washed, and lysed in DPBS containing protease inhibitor using a tip sonicator. Lysate was normalized to 1 mg/mL then diluted with loading buffer and run on SDS-PAGE gel that was transferred by western blot to nitrocellulose. The nitrocellulose membrane was stained for biotin and Flag-Tag using streptavidin IR dye (Li-cor #926-32230; Li-cor Biosciences, Lincoln, Nebr., United States of America) and anti-Flag (Sigma #F3165, Sigma-Aldrich, St. Louis, Mo., United States of America; Li-cor #926-68072, Li-cor Biosciences, Lincoln, Nebr., United States of America). Fluorescence images were collected using an Odyssey infrared imager (Li-cor Biosciences, Lincoln, Nebr., United States of America). […]
smiles,measurement,value
COc1cc(C(C)OC(=O)NC(CCCCNC(=O)CCC2(C)N=N2)C(=O)NCCCCCNC(=O)CCCCC2SCC3NC(=O)NC32)c([N+](=O)[O-])cc1OCCCC(=O)NCc1ccc(COc2nc(N)nc3[nH]cnc23)cc1 (stereo not shown) [PP1],EC50,4.5 µM
